This passage reports inhibition results from ChEMBL document CHEMBL1135141, “Inhibition of glutathione S-transferase in rat hepatocytes by a glycine-tetrazole modified S-alkyl-GSH analogue” (Bioorg Med Chem Lett, 2002).

Holding throughout (settings): concentration not given here
Test [1] deals with T1, Glutathione S-transferase Mu 1 (Rattus norvegicus) (UniProt P04905).
T1 sequence (whole entry): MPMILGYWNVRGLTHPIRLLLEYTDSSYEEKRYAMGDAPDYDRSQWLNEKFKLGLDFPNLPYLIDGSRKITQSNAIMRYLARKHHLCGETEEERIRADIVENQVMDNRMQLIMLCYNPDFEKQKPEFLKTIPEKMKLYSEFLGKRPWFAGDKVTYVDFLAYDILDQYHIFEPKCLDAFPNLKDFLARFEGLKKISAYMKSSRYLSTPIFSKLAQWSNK
Put plainly: Tested for percent inhibition of isolated rat liver cytosolic Glutathione S-transferase 3-3 isoenzyme.

For test [2], the target named is Glutathione S-transferase alpha-3 (Rattus norvegicus) (UniProt P04904). Description: Tested for percent inhibition of isolated rat liver cytosolic Glutathione S-transferase 2-2 isoenzyme.
Glutathione S-transferase alpha-3 (Rattus norvegicus), sequence (P04904 whole entry, looked up): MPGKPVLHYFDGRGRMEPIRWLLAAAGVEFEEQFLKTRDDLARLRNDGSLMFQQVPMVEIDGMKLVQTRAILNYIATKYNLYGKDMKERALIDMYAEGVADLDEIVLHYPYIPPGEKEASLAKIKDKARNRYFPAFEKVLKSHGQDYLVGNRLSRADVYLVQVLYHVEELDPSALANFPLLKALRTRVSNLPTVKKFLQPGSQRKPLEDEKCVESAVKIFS
Test [3] concerns the target T2, Glutathione S-transferase Mu 2 (Rattus norvegicus) (UniProt P08010).
T2 sequence (whole entry): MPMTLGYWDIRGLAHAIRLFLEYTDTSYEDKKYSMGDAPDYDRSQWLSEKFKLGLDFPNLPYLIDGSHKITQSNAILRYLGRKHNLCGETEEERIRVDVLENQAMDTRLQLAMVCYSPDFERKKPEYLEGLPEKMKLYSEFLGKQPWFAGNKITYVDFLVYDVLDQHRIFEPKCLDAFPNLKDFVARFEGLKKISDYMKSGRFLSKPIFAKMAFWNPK
Description: Tested for percent inhibition of isolated rat liver cytosolic Glutathione S-transferase 4-4 isoenzyme.

Test [4] concerns the target Glutathione S-transferase alpha-1 (Rattus norvegicus) (UniProt P00502). Put plainly: Tested for percent inhibition of isolated rat liver cytosolic Glutathione S-transferase 1-1 isoenzyme.

Glutathione S-transferase alpha-1 (Rattus norvegicus), sequence (P00502 whole entry, looked up): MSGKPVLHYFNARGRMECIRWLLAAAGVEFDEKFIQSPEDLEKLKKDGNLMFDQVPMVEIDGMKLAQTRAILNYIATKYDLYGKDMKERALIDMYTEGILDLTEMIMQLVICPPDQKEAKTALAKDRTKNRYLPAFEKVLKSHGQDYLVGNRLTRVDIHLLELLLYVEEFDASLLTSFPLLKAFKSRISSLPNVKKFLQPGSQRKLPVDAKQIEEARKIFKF

`CCCCCC(C)SCC(NC(=O)CCC(N)C(=O)O)C(=O)NCC(=O)O` (single isomer, unassigned): the inhibition in test [1] is 95%; in test [2] it was 98%; in test [3] it was 91%; in test [4] it was 53%.
In the same order, the values of `CCCCCC(C)SCC(NC(=O)CCC(N)C(=O)O)C(=O)NCc1nn[nH]n1` (stereo not drawn) are 65%, 53%, 59% and 16%.
